Experimental data taken from patent US9089499B2, “Para-coumaric acid or para-hydroxycinnamic acid derivatives and their use in cosmetic or dermatological compositions” (BASF Beauty Care Solutions France S.A.S., priority 2005, dated 2015).
Like-named read-outs stand apart in the source and are kept apart here.

Experiments:
guinea pigs = experiment: Skin sensitization potential in guinea pigs (Magnusson and Kligmann maximization test); format: in vivo; conditions: 10% in a 0.5% xanthan gel
From the text: The preparations described are subjected to the maximization test described by Magnusson and Kligmann, which protocol is in accordance with the OCDE guideline No. 406.

skin of rabbits = experiment: Primary skin irritation in rabbits; format: in vivo; conditions: 10% in a 0.5% xanthan gel; undiluted, 0.5 ml to the skin of rabbits
Method: The preparations described above are applied without dilution at a dose of 0.5 ml to the skin of 3 rabbits according to the method recommended by the OCDE Directive concerning the study of “the acute irritant/corrosive effect on the skin”. The products are classified according to the criteria defined by the decree of 1/2/1982 published in the JORF of 21/02/82.

normal human melanocytes = experiment: Cytotoxicity on normal human melanocytes, PNPP assay; format: cell-based; conditions: 24 hours, relative to untreated wells
Method: The cytotoxicity of the active agents is studied on normal human melanocytes in 24-well plates, via assay with PNPP (P-nitrophenyl phosphate), this substance being converted into p-nitrophenol via the intracellular acid phosphatases of viable cells. The absorbance of p-nitrophenol at 405 nm is directly proportional to the number of viable cells.
The active agents are tested at 2 different concentrations (10^−4 M and 10^−5 M) and added to the culture medium and incubated at 37° C. for 24 hours. The assay with PNPP is performed on the cell lawn and the results are expressed as a percentage of viability relative to the negative control (untreated wells).

Human tyrosinase [1] = molecular target: T1, Human tyrosinase (Homo sapiens, UniProt P14679); experiment: Inhibition of human tyrosinase after 24 h application to normal human melanocytes in monolayer; format: cell-based; conditions: for inhibition at 1000 µM: 10^−3 M
T1 construct: endogenous in cells; host or cells: normal human melanocytes (abdominal surgery; several donors of fair, brown and black phototypes)
T1 sequence (P14679 19-529): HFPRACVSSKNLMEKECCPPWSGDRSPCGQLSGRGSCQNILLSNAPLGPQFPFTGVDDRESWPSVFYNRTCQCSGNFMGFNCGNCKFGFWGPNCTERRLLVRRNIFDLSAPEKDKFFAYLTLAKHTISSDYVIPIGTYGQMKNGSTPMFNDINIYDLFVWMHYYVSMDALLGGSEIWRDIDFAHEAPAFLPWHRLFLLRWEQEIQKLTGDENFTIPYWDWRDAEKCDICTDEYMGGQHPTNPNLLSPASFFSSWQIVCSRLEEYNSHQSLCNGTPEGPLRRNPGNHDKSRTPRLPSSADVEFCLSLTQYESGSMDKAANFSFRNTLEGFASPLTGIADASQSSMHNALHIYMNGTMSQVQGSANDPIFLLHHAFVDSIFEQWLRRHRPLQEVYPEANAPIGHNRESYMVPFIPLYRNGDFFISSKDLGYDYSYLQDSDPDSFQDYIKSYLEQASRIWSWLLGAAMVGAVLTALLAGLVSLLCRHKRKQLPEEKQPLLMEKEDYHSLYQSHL
Method: Normal human melanocytes (obtained from abdominal surgery) are seeded in 24-well plates at a rate of 80 000 cells per well. They are cultured to confluence and the active agents are applied for 24 hours to the culture media. After 24 hours, the media are removed and the melanocytes are detached via mechanical action. An extraction is performed via a thermal shock and the supernatants are then recovered and incubated with MBTH (Sigma) and L-dopa (Sigma). The OD at 490 nm is measured after 30 minutes, and the tyrosinase inhibition is calculated by relating the OD at 490 nm to the protein content (measured in each culture well) of the test relative to the ratio: OD 490 nm/protein concentration of the negative control (untreated control).
The compounds derived from the examples mentioned above were tested on melanocytes derived from various donors but of fair phototype, according to the protocol described in Example 29. The donors tested are as follows: • donor S (donor tested in Example 12): • donor 1: • donor 2: • donor 3
The compound derived from Example 1 is tested on cultures of melanocytes obtained from 2 donors of brown phototype and from one donor of black phototype. The protocol applied is that described in Example 29. […]

in vivo = conditions: both, rat, po
Method: (§1) The toxicology tests were performed on the compound obtained according to Example 1 incorporated at 10% into a 0.5% xanthan gel, by ocular evaluation on rabbits, by studying the absence of abnormal toxicity via single oral administration to rats, and by studying the sensitizing power on guinea pigs.
(§2) The preparations described were administered in a single portion orally at a dose of 2 g/kg of body weight, to 5 male rats and 5 female rats according to a protocol inspired by the OCDE Directive No. 401 of 24 February 1987 and adapted to cosmetic products.

rats = experiment: in vivo; conditions: both, rat, po
Method: as §1, §2

fungal tyrosinase = experiment: In vitro test of inhibition of isolated fungal tyrosinase (L-dopa, dopachrome OD 490 nm); format: biochemical; conditions: 490 nm
From the text: Tyrosinase catalyses the formation of L-dopaquinone and then of dopachrome from L-dopa. Now, dopachrome is a coloured compound that may be quantified by visible spectrophotometry at 490 nm. The use of an active agent capable of modifying the enzymatic activity will be reflected by a variation in the optical density at 490 nm. The to ratio of the rates of formation of dopachrome makes it possible to determine precisely the activations or inhibitions obtained with the various test molecules.
The sample to be tested is incubated in the presence of fungal tyrosinase (Sigma), for 5 minutes with stirring. L-Dopa (Sigma), a tyrosinase substrate, is incubated for 10 minutes in the absence of light, in the presence or absence of the test molecules. The calculation of the percentage of inhibition is performed by relating the test OD to the OD of the negative control without molecule.
In the context of this in vitro test, the p-coumaric acid derivatives were tested at final concentrations of 10^−4M and 10^−5M.

Human tyrosinase [2] = molecular target: T1, Human tyrosinase; experiment: In vitro test of inhibition of human tyrosinase from melanocyte extracts (L-dopa/MBTH, OD 490 nm); format: biochemical; conditions: melanocyte extract
Method: Human tyrosinase, obtained from melanocyte extracts obtained from healthy donors, catalyses the formation of L-dopaquinone from L-dopa. Now, the L-dopaquinone may be quantified by visible spectrophotometry at 490 nm by means of a chromogen: 3-methyl-2-benzothiazolinone hydrazone (MBTH).
The melanocyte extract is obtained after lysis of cell membranes of the normal human melanocytes, performed via a thermal shock. The supernatant is recovered and then incubated with MBTH (Sigma) and L-dopa (Sigma). […]

COc1cc(/C=C/C(=O)NCCc2ccc(O)c(O)c2)ccc1O [Example 1, N-trans-feruloyldopamine]
Skin sensitization classification (guinea pigs): not sensitizing on contact with the skin | Primary skin irritation classification (skin of rabbits): non-irritant to the skin | Percentages of viability, Mean 10^−4 M (normal human melanocytes; 10^−4 M): 94.49% | Percentages of viability, Mean 10^−5 M (normal human melanocytes; 10^−5 M): 119.83% | inhibition at 100 µM (Human tyrosinase [1]; 10^−4M, 24 hours, read-out: Inhibition of human tyrosinase after application to normal human melanocytes, percentage of inhibition, Mean 10^−4M): 62.3% | inhibition at 10 µM (Human tyrosinase [1]; 10^−5M, 24 hours, read-out: Inhibition of human tyrosinase after application to normal human melanocytes, percentage of inhibition, Mean 10^−5M): 29.4% | inhibition at 1000 µM (Human tyrosinase [1]; B103, Donor B, brown phototype, read-out: Inhibition of tyrosinase, Mean Donor B, 10^−3 M): 87.2% | inhibition at 100 µM (Human tyrosinase [1]; B104, Donor B, brown phototype, 10^−4 M, read-out: Inhibition of tyrosinase, Mean Donor B, 10^−4 M): 65.8% | inhibition at 100 µM (Human tyrosinase [1]; Donor 1, fair phototype, 10^−4 M, read-out: Inhibition of tyrosinase, Mean 10^−4 M, Donor 1): 63.9% | inhibition at 10 µM (Human tyrosinase [1]; Donor 1, fair phototype, 10^−5 M, read-out: Inhibition of tyrosinase, Mean 10^−5 M, Donor 1): 35.8% | inhibition at 100 µM (Human tyrosinase [1]; Donor 2, fair phototype, 10^−4 M, read-out: Inhibition of tyrosinase, Mean 10^−4 M, Donor 2): 59.9% | inhibition at 10 µM (Human tyrosinase [1]; Donor 2, fair phototype, 10^−5 M, read-out: Inhibition of tyrosinase, Mean 10^−5 M, Donor 2): 12.9% | inhibition at 100 µM (Human tyrosinase [1]; Donor 3, fair phototype, 10^−4 M, read-out: Inhibition of tyrosinase, Mean 10^−4 M, Donor 3): 50.2% | inhibition at 10 µM (Human tyrosinase [1]; Donor 3, fair phototype, 10^−5 M, read-out: Inhibition of tyrosinase, Mean 10^−5 M, Donor 3): 18.9% | inhibition at 1000 µM (Human tyrosinase [1]; Donor A, brown phototype, read-out: Inhibition of tyrosinase, Mean Donor A, 10^−3 M): 99.4% | inhibition at 100 µM (Human tyrosinase [1]; Donor A, brown phototype, 10^−4 M, read-out: Inhibition of tyrosinase, Mean Donor A, 10^−4 M): 59.2% | inhibition at 10 µM (Human tyrosinase [1]; Donor A, brown phototype, 10^−5 M, read-out: Inhibition of tyrosinase, Mean Donor A, 10^−5 M): 29.3% | inhibition at 10 µM (Human tyrosinase [1]; Donor B, brown phototype, 10^−5 M, read-out: Inhibition of tyrosinase, Mean Donor B, 10^−5 M): 20.8% | inhibition at 100 µM (Human tyrosinase [1]; Donor S, fair phototype, 10^−4 M, read-out: Inhibition of tyrosinase, Mean 10^−4 M, Donor S): 62.3% | inhibition at 10 µM (Human tyrosinase [1]; Donor S, fair phototype, 10^−5 M, read-out: Inhibition of tyrosinase, Mean 10^−5 M, Donor S): 29.4% | LD50 (in vivo): > 2000 mg/kg | LD0 (rats): greater than 2000 mg/kg | Inhibition of fungal tyrosinase, percentage of inhibition, Mean 10^−4M (fungal tyrosinase; 10^−4M): 9.18% | Inhibition of fungal tyrosinase, percentage of inhibition, Mean 10^−5M (fungal tyrosinase; 10^−5M): 0% | inhibition at 100 µM (Human tyrosinase [2]; 10^−4M, read-out: Inhibition of human tyrosinase, percentage of inhibition, Mean 10^−4M): 0% | inhibition at 10 µM (Human tyrosinase [2]; 10^−5M, read-out: Inhibition of human tyrosinase, percentage of inhibition, Mean 10^−5M): 0%
